The values below come from publication PMC9327782, “Benzoxazole derivatives as new VEGFR-2 inhibitors and apoptosis inducers: design, synthesis, in silico studies, and antiproliferative evaluation” (Journal of Enzyme Inhibition and Medicinal Chemistry, 2022).

Read-outs that look alike come from different tables or passages of the source.

Holding throughout (type): cell-based, human
One assay relates to Bcl-2. The assay can be described thus: Western blot, Bcl-2 level in HepG2 cells. Conditions: HepG2, 24 h. The protocol: (§1) Compound 12lwas subjected to further cellular mechanistic study. The cellular levels of BAX and Bcl-2 were measured using the western blot technique after compound 12l was applied to HepG2 cells for 24 h.
(§2) The western blot technique was applied in accordance with the comprehensive description in Supplementary data[38–40] […]
(§3) The proteins expression of cleaved caspase‐3, BAX, and Bcl‐2 were determined using Western blot analysis. In brief, HepG2 cells were treated with control, or with the synthesized compounds.
Then cells were lysed in 250 μL precold lysis buffer (pH 7.4: Tris‐Base [10 mM], NaCl [100 mM], ethylenediaminetetraacetic acid [EDTA, 25 mM], ethylene glycol bis (2‐aminoethyl) tetraacetic acid [EGTA, 25 mM], 1% [v/v] NP‐40, and 1% [v/v] Triton X‐100) supplemented with 1:350 protease:phosphatase inhibitors cocktail (Sigma). The cells were immediately frozen at −20°C for 1.5 hours for further lysis, collected by cell scraper, sonicated 3 × 10 seconds, and centrifuged (13000 rpm, 15 minutes). Total protein concentrations in the supernatant were determined colorimetrically using the Pierce 660 nm Protein Assay method (Thermo Fisher Scientific, Rockford, IL), with BSA as the standard. […]
On the technique in general: In western blotting, separated proteins are transferred to a membrane and probed.

The next assay deals with HepG2 cell line. The assay can be described thus: In vitro anti-proliferative MTT assay, HepG2. To be noted: Homo sapiens. From the text:
(§4) The cytotoxicity results were obtained as median growth inhibitory concentration (IC50).
(§5) MTT assay protocol. This method was applied in accordance with the comprehensive description in Supplementary data. […]
(§6) 5 Raw data of cytotoxity and VEGFR -2 assay […]
(§7) Experimental of biological testing
(§8) 1. In vitro anti-proliferative activity
(§9) MTT assay protocol was applied to assess the anti-proliferative activity of the synthesized compounds. Two human cancer cell lines (MCF-7 and HepG-2) and one normal cell line (WI-38) were used in this test. At first, the cell lines were cultured in RPMI -1640 medium with 10% fetal bovine serum. Antibiotics (100 units/ml penicillin and100 µg/ml streptomycin ) were added at 37 °C in a 5% CO2 incubator. The cell lines were seeded in a 96-well plate at a density of 1.0 x 10^4 cells / well at 37 °C for 24 h under 5% CO2. After incubation, the cells were treated with different […]
(§10) concentration of the synthesized compounds and incubated for 24 h. After 24 h of drug treatment, 20 µl of MTT solution at 5mg/ml was added and incubated for 4 h. Dimethyl sulfoxide (DMSO) in volume of 100 µl was added into each well to dissolve the purple formazan formed. The colorimetric assay was measured and recorded at absorbance of 570 nm using a plate reader (EXL 800, USA). The relative cell viability in percentage was calculated as (A570 of treated samples/A570 of untreated sample) X 100. […]
On the technique in general: Tetrazolium dyes change colour on reduction, which living cells bring about.

A further assay relates to Caspase-3. The assay can be described thus: Western blot, caspase-3 level in HepG2 cells. Conditions: HepG2, 10.50 µM, 24 h. The protocol:
Caspase-3 has a key role in apoptosis initiation and execution[26]^,[27]. The western blot technique was used to investigate the effect of compound 12 l, the most promising member, on the caspase-3 level. HepG2 cells were treated with 12l (10.50 µM) for 24 h.
The western blot technique was applied in accordance with the comprehensive description in Supplementary data[38–40]
4. Flow cytometry analysis for apoptosis
Flow cytometry cell apoptosis analysis was used to investigate the apoptotic effect of the synthesized compounds. […] The stained cells were measured using Epics XL-MCL™ Flow Cytometer and analyzed using Flowing software.
The proteins expression of cleaved caspase‐3, BAX, and Bcl‐2 were determined using Western blot analysis. […]
Then cells were lysed in 250 μL precold lysis buffer (pH 7.4: Tris‐Base [10 mM], NaCl [100 mM], ethylenediaminetetraacetic acid [EDTA, 25 mM], ethylene glycol bis (2‐aminoethyl) tetraacetic acid [EGTA, 25 mM], 1% [v/v] NP‐40, and 1% [v/v] Triton X‐100) supplemented with 1:350 protease:phosphatase inhibitors cocktail (Sigma). […] Total protein concentrations in the supernatant were determined colorimetrically using the Pierce 660 nm Protein Assay method (Thermo Fisher Scientific, Rockford, IL), with BSA as the standard. […]

In a further assay the test system is MCF-7 cell line. Description: In vitro anti-proliferative MTT assay, MCF-7. To be noted: Homo sapiens.
Text: as §4, §5, §6, §7, §8, §9, §10

The next assay has as its system BAX. Description: Western blot, BAX level in HepG2 cells. To be noted: HepG2, 24 h. The protocol: as §1, §2, §3
Then cells were lysed in 250 μL precold lysis buffer (pH 7.4: Tris‐Base [10 mM], NaCl [100 mM], ethylenediaminetetraacetic acid [EDTA, 25 mM], ethylene glycol bis (2‐aminoethyl) tetraacetic acid [EGTA, 25 mM], 1% [v/v] NP‐40, and 1% [v/v] Triton X‐100) supplemented with 1:350 protease:phosphatase inhibitors cocktail (Sigma). The cells were immediately frozen at −20°C for 1.5 hours for further lysis, collected by cell scraper, sonicated 3 × 10 seconds, and centrifuged (13000 rpm, 15 minutes). Total protein concentrations in the supernatant were determined colorimetrically using the Pierce 660 nm Protein Assay method (Thermo Fisher Scientific, Rockford, IL), with BSA as the standard. Equal amounts of protein (25 μg) samples were mixed with SDS‐loading buffer (pH 6.8: Tris‐HCl [700 mM], dithiothreitol [DTT, 600 mM], sodium dodecyl sulfate [SDS, 12%], glycerol [60%], and bromophenol blue [0.012%]), denatured by boiling at 95°C for 10 minutes, allowed to cool on ice for 15 minutes, vortexed vigorously for 30 seconds and loaded into SDS‐polyacrylamide gel and separated by an electrophoresis unit (Cleaver Scientific Ltd, UK), transferred onto polyvinylidene fluoride membranes (Bio‐Rad) for 35 minutes using a Trans‐Blot SD semi‐dry transfer cell (Bio‐Rad) at 250 mA and 22 V. Membranes were blocked with 5% (w/v) blotting grade dry milk (Bio‐Rad) in Tris‐buffered saline/Tween‐20 (TBS‐ T) (pH 7.5: Tris‐base [20 mM], NaCl [150 mM], and 0.05% [v/v] Tween‐ 20) while shaking for 1.5 hour at RT, and then incubated with the corresponding primary antibody against cleaved caspase‐3 antibody ([…], #9661; Cell Signaling Technology), β‐actin (1:2000, #A5060; Sigma), BAX (Biovision, USA) and Bcl‐2( Bioimaging, system, syngene, UK) for 9‐10 hours at 4°C in a […]
three separate experiments. […]
the synthesized compounds towards VEGFR-2. The crystal structure of VEGFR-2 was […]
2.03 Å). Sorafenib was used as reference ligand. To prepare the target protein, water molecules […]
fields. […] The validation […]
process was performed by redocking the co-crystallized ligand. The designed compounds together […]
followed by energy minimization then prepared for docking. Docking process was carried through […]
binding mode with target molecule.

As to `Cc1ccc2oc(SCC(=O)Nc3ccc(C(=O)Nc4cccc(Cl)c4)cc3)nc2c1` [Compound 12l, N-(3-Chlorophenyl)-4–(2-((5-methylbenzo[d]oxazol-2-yl)thio)acetamido)benzamide], in the assay on Bcl-2 (control = 1.00), the “Protein expression (normalized to β-actin) Bcl-2” value is listed as 0.47 ± 0.05. Moreover, the Bcl-2 level decrease in the assay with Bcl-2 (versus control) came to 2.12 fold. Moreover, the IC50 in the assay on HepG2 cell line (HepG2, 24 h, MTT, 24 h treatment, mean of three experiments, read-out: In vitro IC50 HepG2) is 10.5 ± 0.8 µM; with HepG2 cell line (HepG2, supplement raw data, dose-response curve fit, read-out: LogIC50 best-fit value, HepG2 (converted)), 10.5 µM; in the assay on MCF-7 cell line (MCF7, 24 h, MTT, 24 h treatment, mean of three experiments, read-out: In vitro IC50 MCF-7), 15.2 ± 1.1 µM; in the assay on MCF-7 cell line (MCF7, supplement raw data, dose-response curve fit, read-out: LogIC50 best-fit value, MCF-7 (converted)) it was 15.2 µM. Moreover, the “Protein expression (normalized to β-actin) Caspase-3” value in the assay on Caspase-3 (control = 1.00) worked out at 2.98 ± 0.13. Besides, the Caspase-3 level increase in the assay on Caspase-3 (versus control) is given as 2.98 fold. Besides, the “Protein expression (normalized to β-actin) BAX” value in the assay on BAX (control = 1.00) is reported as 3.40 ± 0.15. The “Protein expression (normalized to β-actin) BAX/Bcl-2 ratio” value in the assay with BAX (control = 1.00) worked out at 6.83 ± 0.96. This compound also yielded a BAX level increase in the assay on BAX (versus control) of 3.40 fold. In the assay with BAX (versus control), the BAX/Bcl-2 ratio increase was determined as 6.83 fold.
